Type in all cases: biochemical
The target of one assay is T1, recombinant human DPP7 (Homo sapiens, UniProt Q9UHL4).
T1 construct: purchased R&D Systems
Nature of the assay: DPP7 inhibition, fluorogenic substrate Lys-Pro-AMC. The conditions noted are these: recombinant human DPP7. The essentials:
(§1)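 Inhibitors are titrated in an 8-point series into the enzyme's assay buffer (DMSO no more than 0.5%). Substrate cleavage at 25 °C is followed by fluorescence, excitation 380 nm and emission 460 nm. IC50 values come from a four-variable logistic model.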

In the next assay the target is T2, recombinant human DPP9 (Homo sapiens, UniProt Q86TI2).
T2 construct: purchased R&D Systems
T2 sequence (Q86TI2 whole entry): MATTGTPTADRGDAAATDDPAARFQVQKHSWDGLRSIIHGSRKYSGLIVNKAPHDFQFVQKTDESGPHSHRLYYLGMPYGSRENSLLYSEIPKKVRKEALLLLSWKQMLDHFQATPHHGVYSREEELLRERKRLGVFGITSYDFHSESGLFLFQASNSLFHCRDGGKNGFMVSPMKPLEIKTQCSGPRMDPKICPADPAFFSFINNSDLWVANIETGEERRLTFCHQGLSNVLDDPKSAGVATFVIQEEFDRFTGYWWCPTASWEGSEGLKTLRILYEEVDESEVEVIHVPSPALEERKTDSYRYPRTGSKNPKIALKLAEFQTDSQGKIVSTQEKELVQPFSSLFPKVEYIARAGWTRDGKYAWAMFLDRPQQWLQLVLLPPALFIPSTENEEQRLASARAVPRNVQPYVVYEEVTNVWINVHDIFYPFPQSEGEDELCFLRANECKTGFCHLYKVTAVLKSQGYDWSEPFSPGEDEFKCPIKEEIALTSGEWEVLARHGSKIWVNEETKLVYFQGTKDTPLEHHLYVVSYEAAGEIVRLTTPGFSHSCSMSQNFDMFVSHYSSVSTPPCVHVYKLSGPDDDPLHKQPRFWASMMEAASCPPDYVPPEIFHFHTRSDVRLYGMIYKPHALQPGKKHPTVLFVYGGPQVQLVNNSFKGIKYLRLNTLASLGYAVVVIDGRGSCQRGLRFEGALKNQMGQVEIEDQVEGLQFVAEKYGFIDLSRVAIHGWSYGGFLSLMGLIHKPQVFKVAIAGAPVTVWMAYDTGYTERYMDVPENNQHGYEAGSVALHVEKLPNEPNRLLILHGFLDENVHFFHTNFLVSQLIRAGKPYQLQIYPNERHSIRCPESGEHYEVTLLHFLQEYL
Nature of the assay: DPP9 inhibition, fluorogenic substrate H-Gly-Pro-AMC. The conditions noted are these: recombinant human DPP9. The essentials:
as §1

For the next assay, the target named is T3, recombinant human PREP (Homo sapiens, UniProt P48147).
T3 construct: purchased R&D System
T3 sequence (P48147 1-710): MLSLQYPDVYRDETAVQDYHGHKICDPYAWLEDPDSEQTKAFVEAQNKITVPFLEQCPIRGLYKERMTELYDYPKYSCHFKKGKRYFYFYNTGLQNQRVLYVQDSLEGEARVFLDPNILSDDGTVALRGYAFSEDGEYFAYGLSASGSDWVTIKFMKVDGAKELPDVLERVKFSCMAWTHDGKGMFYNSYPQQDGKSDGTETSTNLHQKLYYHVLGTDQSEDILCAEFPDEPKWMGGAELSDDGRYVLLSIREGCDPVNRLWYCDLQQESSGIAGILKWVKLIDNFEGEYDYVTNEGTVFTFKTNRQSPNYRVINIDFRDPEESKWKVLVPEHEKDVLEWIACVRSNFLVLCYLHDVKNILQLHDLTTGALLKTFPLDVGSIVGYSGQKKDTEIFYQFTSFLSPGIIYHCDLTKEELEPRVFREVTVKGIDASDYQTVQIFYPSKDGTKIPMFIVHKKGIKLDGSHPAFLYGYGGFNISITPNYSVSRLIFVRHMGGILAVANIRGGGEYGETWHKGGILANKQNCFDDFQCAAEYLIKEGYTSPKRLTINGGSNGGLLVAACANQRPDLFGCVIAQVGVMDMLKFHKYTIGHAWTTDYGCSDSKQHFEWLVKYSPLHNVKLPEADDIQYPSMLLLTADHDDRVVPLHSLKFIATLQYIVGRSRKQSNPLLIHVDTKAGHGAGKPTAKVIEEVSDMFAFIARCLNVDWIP
Nature of the assay: PREP inhibition, fluorogenic substrate Z-Gly-Pro-AMC. The conditions noted are these: Inhibitory Activity (IC50, nM) PREP, recombinant human PREP. In a few lines:
as §1

The target in the next assay is T4, Recombinant human FAP (Homo sapiens, UniProt Q12884).
T4 construct: purchased R&D systems
T4 sequence (Q12884 1-760): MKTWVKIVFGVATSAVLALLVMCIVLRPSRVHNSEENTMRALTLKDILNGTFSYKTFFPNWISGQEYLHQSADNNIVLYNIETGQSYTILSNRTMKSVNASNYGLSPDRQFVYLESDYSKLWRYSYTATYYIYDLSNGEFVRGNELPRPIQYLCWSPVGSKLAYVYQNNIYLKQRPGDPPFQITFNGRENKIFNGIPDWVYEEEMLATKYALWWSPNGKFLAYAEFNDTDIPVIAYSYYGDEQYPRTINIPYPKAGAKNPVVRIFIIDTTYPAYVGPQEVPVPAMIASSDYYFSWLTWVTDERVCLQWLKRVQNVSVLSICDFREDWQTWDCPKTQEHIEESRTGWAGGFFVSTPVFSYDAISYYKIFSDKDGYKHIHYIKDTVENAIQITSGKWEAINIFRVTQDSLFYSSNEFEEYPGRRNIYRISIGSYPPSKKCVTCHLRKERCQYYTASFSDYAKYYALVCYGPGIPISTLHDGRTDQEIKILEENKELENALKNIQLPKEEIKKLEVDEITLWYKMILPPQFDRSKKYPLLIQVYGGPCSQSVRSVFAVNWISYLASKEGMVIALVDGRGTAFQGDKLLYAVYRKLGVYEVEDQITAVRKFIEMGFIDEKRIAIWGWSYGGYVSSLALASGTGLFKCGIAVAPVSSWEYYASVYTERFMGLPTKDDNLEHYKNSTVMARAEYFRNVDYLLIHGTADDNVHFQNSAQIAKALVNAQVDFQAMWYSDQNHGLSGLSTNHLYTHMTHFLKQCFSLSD
Nature of the assay: FAP FRET assay, FGF21-sequence FRET peptide substrate. The conditions noted are these: FRET peptide with human FGF21 sequence, 6 μM, 37° C. In a few lines:
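FRET peptide bearing human FGF21 sequence (6 μM final) cleaved by 10 ng recombinant human FAP at 37° C in HEPES pH 7.2 buffer with NaCl, BSA and EDTA, DMSO up to 0.1%. Signal-rate decrease versus uninhibited control fitted to a four-variable logistic model for IC50.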

In a further assay the target is DPP4 (Homo sapiens, UniProt P27487). Nature of the assay: DPP4 inhibition, fluorogenic substrate H-Gly-Pro-AMC. Set-up: purchased R&D Systems. The conditions noted are these: recombinant human DPP4.
Chain of DPP4 (P27487 whole entry): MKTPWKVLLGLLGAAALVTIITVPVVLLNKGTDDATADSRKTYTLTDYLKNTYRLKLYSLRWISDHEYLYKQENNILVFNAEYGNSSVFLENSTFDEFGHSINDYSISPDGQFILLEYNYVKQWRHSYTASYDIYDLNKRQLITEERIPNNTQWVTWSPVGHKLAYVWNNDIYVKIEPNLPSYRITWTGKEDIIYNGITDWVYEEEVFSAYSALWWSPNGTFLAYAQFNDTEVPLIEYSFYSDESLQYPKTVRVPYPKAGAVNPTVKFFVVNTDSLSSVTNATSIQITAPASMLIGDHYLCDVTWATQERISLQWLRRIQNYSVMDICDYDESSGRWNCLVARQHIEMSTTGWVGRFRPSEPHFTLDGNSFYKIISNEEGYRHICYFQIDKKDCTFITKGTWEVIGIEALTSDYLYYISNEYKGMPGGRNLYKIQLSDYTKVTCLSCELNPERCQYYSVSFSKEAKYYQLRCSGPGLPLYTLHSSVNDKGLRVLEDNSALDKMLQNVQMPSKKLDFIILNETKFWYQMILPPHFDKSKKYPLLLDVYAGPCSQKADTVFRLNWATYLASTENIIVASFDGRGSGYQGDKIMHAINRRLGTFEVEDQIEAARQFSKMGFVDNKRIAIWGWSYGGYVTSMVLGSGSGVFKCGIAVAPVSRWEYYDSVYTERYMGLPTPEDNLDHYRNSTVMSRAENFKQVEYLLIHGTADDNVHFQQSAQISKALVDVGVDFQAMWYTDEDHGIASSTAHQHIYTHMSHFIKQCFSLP

Some results are limits rather than exact numbers.

Drawing on patent US11655235B2, “Pyrrolidine and piperidine compounds” (YUHAN CORPORATION, priority 2019, dated 2023), this text covers IC50 for 14 molecules.

What is called IC50 is the concentration needed to halve the response being measured. `CN(C(=O)c1ccc(N[C@H]2CCN(CC(=O)N3C[C@@H](F)C[C@H]3C#N)C2)c2cccnc12)c1ccccc1` [Example 284, N-methyl-N-phenyl-5-[[(3S)-1-[2-oxo-2-[(2S,4S)-2-cyano-4-fluoro-pyrrolidin-1-yl]ethyl]pyrrolidin-3-yl]amino]quinoline-8-carboxamide]: the IC50 at recombinant human DPP7 was determined as 932 nM; on recombinant human DPP9, 1640 nM; on recombinant human PREP it was 574 nM; at Recombinant human FAP, 10.6 nM; on DPP4, 2390 nM.

With `CN(Cc1ccccc1)C(=O)c1ccc(N[C@H]2CCN(CC(=O)N3C[C@@H](F)C[C@H]3C#N)C2)c2cccnc12` [Example 285, N-benzyl-N-methyl-5-[[(3S)-1-[2-oxo-2-[(2S,4S)-2-cyano-4-fluoro-pyrrolidin-1-yl]ethyl]pyrrolidin-3-yl]amino]quinoline-8-carboxamide], the IC50 on recombinant human DPP7 stood at 333 nM; on recombinant human DPP9, 1080 nM; at recombinant human PREP, 2450 nM; on Recombinant human FAP, 3.9 nM; at DPP4 it was 2500 nM.

For `CN(Cc1ccccc1)C(=O)c1ccc(N[C@H]2CCN(CC(=O)N3CCC[C@H]3C#N)C2)c2cccnc12` [Example 288, N-benzyl-N-methyl-5-[[(3S)-1-[2-oxo-2-[(2S)-2-cyanopyrrolidin-1-yl]ethyl]pyrrolidin-3-yl]amino]quinoline-8-carboxamide], the IC50 at recombinant human DPP7 was 677 nM; at recombinant human DPP9, 1210 nM; on recombinant human PREP, 11400 nM; at Recombinant human FAP, 14 nM; at DPP4 it was 18500 nM.

With `N#C[C@@H]1CCCN1C(=O)CN1CC[C@H](Nc2ccc(C(=O)Nc3cccnc3)c3ncccc23)C1` [Example 290, N-(3-pyridyl)-5-[[(3S)-1-[2-oxo-2-[(2S)-2-cyanopyrrolidin-1-yl]ethyl]pyrrolidin-3-yl]amino]quinoline-8-carboxamide], the IC50 was determined as 121 nM at recombinant human DPP7; 567 nM at recombinant human DPP9; 429 nM at recombinant human PREP; 1.1 nM on Recombinant human FAP; 926 nM at DPP4.

Take `N#C[C@@H]1CCCN1C(=O)CN1CC[C@H](Nc2ccc(C(=O)Nc3ccncc3)c3ncccc23)C1` [Example 291, N-(4-pyridyl)-5-[[(3S)-1-[2-oxo-2-[(2S)-2-cyanopyrrolidin-1-yl]ethyl]pyrrolidin-3-yl]amino]quinoline-8-carboxamide]: the IC50 worked out at 173 nM at recombinant human DPP7; 2840 nM at recombinant human DPP9; 2110 nM on recombinant human PREP; 4.4 nM on Recombinant human FAP; 12900 nM on DPP4.

On to `N#C[C@@H]1C[C@H](F)CN1C(=O)CN1CC[C@H](Nc2ccc(C(=O)Nc3ccncc3)c3ncccc23)C1` [Example 292, N-(4-pyridyl)-5-[[(3S)-1-[2-oxo-2-[(2S,4S)-2-cyano-4-fluoro-pyrrolidin-1-yl]ethyl]pyrrolidin-3-yl]amino]quinoline-8-carboxamide], for which the half-maximal inhibitory concentration (IC50) on recombinant human DPP7 was found to be 163 nM; at recombinant human DPP9, 371 nM; on recombinant human PREP it was 1470 nM; on Recombinant human FAP it was 1.3 nM; on DPP4 it was 5180 nM.

For `N#C[C@@H]1CCCN1C(=O)CN1CC[C@H](Nc2ccc(C(=O)Nc3ccccn3)c3ncccc23)C1` [Example 293, N-(2-pyridyl)-5-[[(3S)-1-[2-oxo-2-[(2S)-2-cyanopyrrolidin-1-yl]ethyl]pyrrolidin-3-yl]amino]quinoline-8-carboxamide], the IC50 on recombinant human DPP7 worked out at 122 nM; at recombinant human DPP9, 1250 nM; on recombinant human PREP, 422 nM; on Recombinant human FAP it was 0.8 nM; on DPP4, 2670 nM.

Consider `N#C[C@@H]1C[C@H](F)CN1C(=O)CN1CC[C@H](Nc2ccc(C(=O)Nc3cccnc3)c3ncccc23)C1` [Example 295, N-(3-pyridyl)-5-[[(3S)-1-[2-oxo-2-[(2S,4S)-2-cyano-4-fluoro-pyrrolidin-1-yl]ethyl]pyrrolidin-3-yl]amino]quinoline-8-carboxamide], for which the IC50 on recombinant human DPP7 came to 64.1 nM; at recombinant human DPP9 it was 87.8 nM; at recombinant human PREP it was 724 nM; on Recombinant human FAP, 0.7 nM; at DPP4 it was 865 nM.

For the molecule `CC(=O)Nc1ccc(N[C@H]2CCN(CC(=O)N3CCC[C@H]3C#N)C2)c2cccnc12` [Example 296, N-[5-[[(3S)-1-[2-oxo-2-[(2S)-2-cyanopyrrolidin-1-yl]ethyl]pyrrolidin-3-yl]amino]-8-quinolyl]acetamide], the IC50 on recombinant human DPP7 came to 142 nM; at recombinant human DPP9, 10600 nM; at recombinant human PREP it was 6440 nM; on Recombinant human FAP, 4.7 nM; at DPP4 it was 15600 nM.

Regarding `CC(=O)Nc1ccc(N[C@H]2CCN(CC(=O)N3C[C@@H](F)C[C@H]3C#N)C2)c2cccnc12` [Example 297, N-[5-[[(3S)-1-[2-oxo-2-[(2S,4S)-2-cyano-4-fluoro-pyrrolidin-1-yl]ethyl]pyrrolidin-3-yl]amino]-8-quinolyl]acetamide], the IC50 is 13.5 nM on recombinant human DPP7; 4200 nM on recombinant human DPP9; 4750 nM on recombinant human PREP; 2.9 nM at Recombinant human FAP; 2810 nM at DPP4.

Take `N#C[C@@H]1C[C@H](F)CN1C(=O)CN1CC[C@H](Nc2ccc(NC(=O)c3ccccc3)c3ncccc23)C1` [Example 298, N-[5-[[(3S)-1-[2-oxo-2-[(2S,4S)-2-cyano-4-fluoro-pyrrolidin-1-yl]ethyl]pyrrolidin-3-yl]amino]-8-quinolyl]benzamide]: the IC50 at recombinant human DPP7 was 257 nM; at recombinant human DPP9 it was 3070 nM; at recombinant human PREP, 6520 nM; at Recombinant human FAP, 2.1 nM; on DPP4 it was 1860 nM.

On to `CCN(c1cnc2ccccc2c1)C1CCN(CC(=O)N2CCC[C@H]2C#N)CC1` [Example 302, (2S)-1-[2-[4-[ethyl(3-quinolyl)amino]-1-piperidyl]acetyl]pyrrolidine-2-carbonitrile], for which the IC50 was 7350 nM at recombinant human DPP7; at least 100000 nM at recombinant human DPP9; 350 nM on recombinant human PREP; 22.2 nM on Recombinant human FAP; at least 100000 nM at DPP4.

`CCN(c1ccc2ncccc2c1)C1CCN(CC(=O)N2CCC[C@H]2C#N)CC1` [Example 303, (2S)-1-[2-[4-[ethyl(6-quinolyl)amino]-1-piperidyl]acetyl]pyrrolidine-2-carbonitrile]: the IC50 at recombinant human DPP7 is 1940 nM; on recombinant human DPP9, at least 100000 nM; on recombinant human PREP, 483 nM; on Recombinant human FAP it was 9.2 nM; on DPP4 it was at least 100000 nM.

In the case of `CCN(c1cnc2ccccc2c1)C1CCN(CC(=O)N2C[C@@H](F)C[C@H]2C#N)CC1` [Example 304, (2S,4S)-1-[2-[4-[ethyl(3-quinolyl)amino]-1-piperidyl]acetyl]-4-fluoro-pyrrolidine-2-carbonitrile], the half-maximal inhibitory concentration (IC50) was found to be 1050 nM on recombinant human DPP7; 7600 nM at recombinant human DPP9; 117 nM on recombinant human PREP; 8 nM at Recombinant human FAP; 18800 nM on DPP4.
